Assay results from DBAASP.
≈ marks a conversion by molar mass, not a printed value. Where “and” joins values, the source holds several entries; their conditions need not be identical. Identical values can stand only once.

How the values were obtained:
Test in all cases: ≥ marks a high value that may be exact or a test limit, other limits are often not marked, values filed in µg/mL are converted to µM
[1] = tested on: Acinetobacter baumannii ATCC 15308
Citrobacter sp. = tested on: Citrobacter sp.
Enterobacter cloacae = tested on: Enterobacter cloacae
[2] = tested on: Escherichia coli ATCC 25922
Klebsiella pneumoniae = tested on: Klebsiella pneumoniae
[3] = tested on: Pseudomonas aeruginosa ATCC 15442
[4] = tested on: Staphylococcus aureus ATCC 25923
Staphylococcus aureus = tested on: Staphylococcus aureus
Streptococcus pneumoniae = tested on: Streptococcus pneumoniae
[5] = tested on: Bacillus subtilis ATCC 6633
[6] = tested on: Candida albicans ATCC 10231
[7] = tested on: Candida parapsilosis ATCC 22019
Cryptococcus neoformans = tested on: Cryptococcus neoformans
[8] = tested on: Escherichia coli ATCC 9637
[9] = tested on: Klebsiella pneumoniae ATCC 27736
[10] = tested on: Pseudomonas aeruginosa ATCC BAA-427
[11] = tested on: Staphylococcus aureus ATCC 29213
[12] = tested on: Staphylococcus aureus ATCC 33592
[13] = tested on: Staphylococcus aureus ATCC 700698
[14] = tested on: Staphylococcus aureus ATCC 700699
[15] = tested on: Staphylococcus aureus ATCC BAA-44
[16] = tested on: Escherichia coli KpC+001812446
[17] = tested on: Klebsiella pneumoniae ATCC 13883
[18] = tested on: Klebsiella pneumoniae KpC+001825971
Bacillus subtilis 168 = tested on: Bacillus subtilis 168
[19] = tested on: Candida albicans F7-39/IDE99
Escherichia coli B = tested on: Escherichia coli B
[20] = tested on: Micrococcus luteus CCM 144
[21] = tested on: Pseudomonas aeruginosa ATCC 27853
Pseudomonas aeruginosa = tested on: Pseudomonas aeruginosa
Staphylococcus aureus 1 = tested on: Staphylococcus aureus 1
[22] = tested on: Staphylococcus aureus ATCC 43300
[23] = tested on: Staphylococcus epidermidis
Escherichia coli C600 = tested on: Escherichia coli C600
[24] = tested on: Pseudomonas aeruginosa PAO1
[25] = tested on: Staphylococcus aureus 209P

## CC[C@H](C)[C@H](NC(=O)[C@H](CCSC)NC(=O)[C@H](C)NC(=O)[C@@H]1CCCN1C(=O)[C@@H](NC(=O)[C@@H]1CCCN1C(=O)[C@H](CCCCN)NC(=O)[C@@H](NC(=O)[C@H](CC(C)C)NC(=O)CNC(=O)CNC(=O)[C@H](CC(C)C)NC(=O)[C@@H](N)Cc1ccccc1)[C@@H](C)CC)C(C)C)C(=O)N[C@H]1CSSC[C@@H](C(=O)O)NC(=O)[C@H](CCCCN)NC(=O)[C@H](CCCCN)NC(=O)[C@H](CCCN=C(N)N)NC(=O)[C@H](C(C)C)NC(=O)[C@H](C)NC1=O [FLGGLIKPVPAMICAVRKKC]
[1]
  MIC: ≥ 117 µM
Citrobacter sp.
  MIC: ≥ 117 µM
Enterobacter cloacae
  MIC: ≥ 117 µM
[2]
  MIC: > 117 µM
Klebsiella pneumoniae
  MIC: > 117 µM
[3]
  MIC: ≥ 117 µM
[4]
  MIC: > 117 µM
Staphylococcus aureus
  MIC: > 117 µM
Streptococcus pneumoniae
  MIC: ≥ 117 µM

## CC[C@H](C)[C@H](NC(=O)[C@H](CC(C)C)NC(=O)CNC(=O)CNC(=O)[C@H](CC(C)C)NC(=O)[C@@H](N)Cc1ccccc1)C(=O)N[C@@H](CCCCN)C(=O)N[C@@H](Cc1c[nH]c2ccccc12)C(=O)N[C@@H](CCCCN)C(=O)N[C@@H](Cc1c[nH]c2ccccc12)C(=O)N1CCC[C@H]1C(=O)N[C@@H](Cc1c[nH]c2ccccc12)C(=O)N[C@@H](Cc1c[nH]c2ccccc12)C(=O)N1CCC[C@H]1C(=O)N[C@@H](Cc1c[nH]c2ccccc12)C(=O)N[C@@H](CCCN=C(N)N)C(=O)N[C@@H](CCCN=C(N)N)C(N)=O [FLGGLIKWKWPWWPWRR]
[1]
  MIC: 13.5 µM (≈ 31.2 µg/mL)
Citrobacter sp.
  MIC: ≥ 108 µM
Enterobacter cloacae
  MIC: ≥ 108 µM
[2]
  MIC: 3.38 µM (≈ 7.81 µg/mL)
Klebsiella pneumoniae
  MIC: > 108 µM
[3]
  MIC: 13.5 µM (≈ 31.2 µg/mL)
[4]
  MIC: 3.38 µM (≈ 7.81 µg/mL)
Staphylococcus aureus
  MIC: 3.38 µM (≈ 7.81 µg/mL)
Streptococcus pneumoniae
  MIC: 3.38 µM (≈ 7.81 µg/mL)

## CC[C@H](C)[C@H](NC(=O)[C@H](CCCN=C(N)N)NC(=O)CNC(=O)[C@H](CC(C)C)NC(=O)[C@H](Cc1ccccc1)NC(=O)[C@H](CCCCN)NC(=O)[C@H](CO)NC(=O)[C@H](Cc1ccccc1)NC(=O)[C@H](Cc1c[nH]c2ccccc12)NC(=O)[C@H](CCCCN)NC(=O)[C@@H](NC(=O)[C@@H](N)Cc1ccccc1)C(C)C)C(=O)N[C@@H](CC(C)C)C(N)=O [FVKWFSKFLGRIL]
[5]
  MIC: 7.6 µM (≈ 12.5 µg/mL)
[6]
  MIC: 6 µM (≈ 9.84 µg/mL)
[7]
  MIC: 6 µM (≈ 9.84 µg/mL)
Cryptococcus neoformans
  MIC: 3 µM (≈ 4.92 µg/mL)
[2]
  MIC: 3.8 µM (≈ 6.23 µg/mL)
[8]
  MIC: 6.25 µM (≈ 10.3 µg/mL)
[9]
  MIC: 7.6 µM (≈ 12.5 µg/mL)
[10]
  MIC: 6.8 µM (≈ 11.2 µg/mL)
[4]
  MIC: 3.8 µM and 7.6 µM
[11]
  MIC: 2 µM (≈ 3.28 µg/mL)
[12]
  MIC: 2 µM (≈ 3.28 µg/mL)
[13]
  MIC: 2 µM (≈ 3.28 µg/mL)
[14]
  MIC: 2 µM (≈ 3.28 µg/mL)
[15]
  MIC: 2 µM (≈ 3.28 µg/mL)

## CC[C@H](C)[C@H](NC(=O)[C@H](CCCCN)NC(=O)[C@H](CCCCN)NC(=O)[C@H](Cc1ccccc1)NC(=O)[C@H](CC(C)C)NC(=O)[C@H](CCCCN)NC(=O)[C@H](Cc1c[nH]c2ccccc12)NC(=O)[C@H](CCCCN)NC(=O)[C@H](Cc1cnc[nH]1)NC(=O)CNC(=O)CN)C(=O)NCC(=O)N[C@@H](C)C(=O)N[C@H](C(=O)N[C@@H](CC(C)C)C(=O)N[C@@H](CCCCN)C(=O)N[C@H](C(=O)N[C@@H](CC(C)C)C(=O)O)C(C)C)C(C)C [GGHKWKLFKKIGAVLKVL]
[2]
  MIC: 4 µM (≈ 8.09 µg/mL)
[16]
  MIC: 8 µM (≈ 16.2 µg/mL)
[17]
  MIC: ≥ 32 µM
[18]
  MIC: 8 µM (≈ 16.2 µg/mL)

## CC[C@H](C)[C@H](NC(=O)CN)C(=O)N[C@@H](CC(C)C)C(=O)N[C@@H](CO)C(=O)N[C@@H](CO)C(=O)N[C@@H](Cc1c[nH]c2ccccc12)C(=O)N[C@@H](CC(C)C)C(=O)N[C@@H](CCCCN)C(=O)N[C@@H](CCCCN)C(=O)N[C@@H](CC(C)C)C(=O)N[C@@H](CCCCN)C(=O)N[C@@H](CCCCN)C(=O)N[C@H](C(=O)N[C@H](C(=O)N[C@@H](C)C(=O)N[C@@H](CCCCN)C(N)=O)[C@@H](C)CC)[C@@H](C)CC [GILSSWLKKLKKIIAK]
Bacillus subtilis 168
  MIC: 7 µM (≈ 12.8 µg/mL)
[19]
  MIC: 17 µM (≈ 31 µg/mL)
Escherichia coli B
  MIC: 11 µM (≈ 20.1 µg/mL)
[20]
  MIC: 3 µM (≈ 5.48 µg/mL)
[21]
  MIC: 4 µM (≈ 7.3 µg/mL)
Pseudomonas aeruginosa
  MIC: 5.9 µM (≈ 10.8 µg/mL)
Staphylococcus aureus 1
  MIC: 6.6 µM (≈ 12 µg/mL)
[22]
  MIC: 16 µM (≈ 29.2 µg/mL)
Staphylococcus aureus
  MIC: 16 µM (≈ 29.2 µg/mL)
[23]
  MIC: 2 µM (≈ 3.65 µg/mL)

## CC[C@H](C)[C@H](NC(=O)CN)C(=O)N[C@@H](CCSC)C(=O)N[C@@H](CO)C(=O)N[C@@H](CO)C(=O)N[C@@H](CC(C)C)C(=O)N[C@@H](CCSC)C(=O)N[C@@H](CCCCN)C(=O)N[C@@H](CCCCN)C(=O)N[C@@H](CC(C)C)C(=O)N[C@@H](C)C(=O)N[C@@H](C)C(=O)N[C@@H](Cc1cnc[nH]1)C(=O)N[C@H](C(=O)N[C@@H](CCCCN)C(=O)N[C@@H](CCCCN)C(N)=O)[C@@H](C)CC [GIMSSLMKKLAAHIKK]
Bacillus subtilis 168
  MIC: 7 µM (≈ 12.3 µg/mL)
[19]
  MIC: 5 µM (≈ 8.78 µg/mL)
Escherichia coli B
  MIC: 20 µM (≈ 35.1 µg/mL)
[20]
  MIC: 3 µM (≈ 5.27 µg/mL)
[21]
  MIC: 23 µM (≈ 40.4 µg/mL)
Pseudomonas aeruginosa
  MIC: 46 µM (≈ 80.7 µg/mL)
Staphylococcus aureus 1
  MIC: ≥ 77 µM
[22]
  MIC: 85 µM (≈ 149 µg/mL)
Staphylococcus aureus
  MIC: 90 µM (≈ 158 µg/mL)
[23]
  MIC: 11 µM (≈ 19.3 µg/mL)

## CC(C)[C@@H]1NC(=O)CNC(=O)[C@H](CCCN=C(N)N)NC(=O)[C@H](C(C)C)NC(=O)[C@H](CCCN=C(N)N)NC(=O)[C@H](C)NC(=O)[C@H](CCCN=C(N)N)NC(=O)[C@H](C(C)C)NC(=O)[C@@H](NC(=O)[C@H](Cc2c[nH]c3ccccc23)NC(=O)[C@@H](N)CCCN=C(N)N)CSSC[C@@H](C(=O)N[C@@H](Cc2c[nH]c3ccccc23)C(=O)O)NC(=O)[C@H](CCCN=C(N)N)NC(=O)[C@H](CCCN=C(N)N)NC(=O)[C@H](Cc2ccc(O)cc2)NC(=O)[C@H](CCCN=C(N)N)NC1=O [RWCVRARVRGVRYRRCW]
Escherichia coli C600
  MIC: 1.56 µM (≈ 3.55 µg/mL)
[24]
  MIC: 12.5 µM (≈ 28.5 µg/mL)
[25]
  MIC: 1.56 µM (≈ 3.55 µg/mL)
